Data taken from PubChem BioAssay (NCI).
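Values below derive from 48-hour exposures of cells grown in 96-well plates, with endpoints linearly interpolated between the two concentrations bracketing the appropriate inhibition level. GI50 is the concentration that inhibits growth by half. TGI: concentration producing complete growth inhibition.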

Key:
Experiment in all cases: NCI-60 cell line screen, 48 h
DLD-1 colon = system: DLD-1 colon
DMS 114 small cell lung = system: DMS 114 small cell lung
DMS 273 small cell lung = system: DMS 273 small cell lung
EKVX NSCLC = system: EKVX NSCLC
HCC-2998 colon = system: HCC-2998 colon
KM20L2 colon = system: KM20L2 colon
LXFL 529 NSCLC = system: LXFL 529 NSCLC
M14 melanoma = system: M14 melanoma
M19-MEL melanoma = system: M19-MEL melanoma
OVCAR-3 ovarian = system: OVCAR-3 ovarian
SNB-78 CNS = system: SNB-78 CNS
MALME-3M melanoma = system: MALME-3M melanoma
HOP-18 NSCLC = system: HOP-18 NSCLC
MDA-N = system: MDA-N

SMILES | TGI (DLD-1 colon) [µM] | TGI (DMS 114 small cell lung) [µM] | TGI (DMS 273 small cell lung) [µM] | TGI (EKVX NSCLC) [µM] | TGI (HCC-2998 colon) [µM] | TGI (KM20L2 colon) [µM] | TGI (LXFL 529 NSCLC) [µM] | TGI (M14 melanoma) [µM] | TGI (M19-MEL melanoma) [µM] | TGI (OVCAR-3 ovarian) [µM] | TGI (SNB-78 CNS) [µM] | TGI (MALME-3M melanoma) [µM] | TGI (HOP-18 NSCLC) [µM] | TGI (MDA-N) [µM] | GI50 (EKVX NSCLC) [µM] | GI50 (HCC-2998 colon) [µM] | GI50 (M14 melanoma) [µM] | GI50 (MALME-3M melanoma) [µM] | GI50 (MDA-N) [µM] | GI50 (OVCAR-3 ovarian) [µM]
COC(=O)CC1N=C(NC#N)N(CCc2c[nH]c3ccccc23)C1=O (centres undefined) | > 100 | > 100 | > 100 | > 100 | > 100 | > 100 | > 100 | > 100 | > 100 | > 100 | > 100 |  |  |  |  |  |  |  |  | 
CC1=CCC(O)C=CC(C)C(O)C(C)C=C(C)C(=O)c2c(O)c(C)cc3c2C(=O)C(N)=C(NC(=O)/C=C\C=C/C=CC(C)C(O)CC1=O)C3=O (centres undefined) | > 100 | > 100 | > 100 | > 100 | > 100 | > 100 | > 100 | > 100 | > 100 | > 100 | > 100 | 82.7 |  |  |  |  |  |  |  | 
CN(C)CC1CCCC(CN(C)C)C1OC(=O)c1ccccc1 (centres undefined) | > 100 |  | > 100 | > 100 | > 100 | > 100 | > 100 | > 100 | > 100 | > 100 | > 100 | > 100 | > 100 |  |  |  |  |  |  | 
CCN(CC)C1CC(O[C@H]2C[C@](O)(C(=O)CO)Cc3c(O)c4c(c(O)c32)C(=O)c2c(OC)cccc2C4=O)OC(C)C1O (some centres undefined) | 0.26 | 0.274 | 0.161 | 0.336 | 0.29 | 0.416 | 1.1 | 0.31 | 0.167 | 0.77 | 0.785 | 0.166 |  |  |  |  |  |  |  | 
O=c1cc(-c2ccc(Oc3ccccc3)cc2)[nH]c2cc3c(cc12)OCO3 | > 100 | > 100 | > 100 | > 100 | > 100 | > 100 | > 100 | > 100 | > 100 | > 100 |  | > 100 |  |  |  |  |  |  |  | 
Nc1nc([O-])c2c(n1)[n+](C1OC(CO)C(O)C1O)cn2CCO (centres undefined) | > 100 | > 100 | > 100 | > 100 |  | > 100 | > 100 | > 100 | > 100 | > 100 | > 100 | > 100 | > 100 |  |  |  |  |  |  | 
CCOC(=O)CC(C)C1(C(=O)OCC)CCCCC1=O (centres undefined) | > 100 | 39.4 | 32.5 | > 100 | > 100 | > 100 | > 100 | > 100 | > 100 | > 100 | > 100 | > 100 | > 100 |  |  |  |  |  |  | 
CN=C(SC)N(C)c1nc(=[N+](C)C)ss1 |  |  | > 100 | > 100 | > 100 |  | > 100 | > 100 |  |  | > 100 |  |  |  |  |  |  |  |  | 
C=C(C)[C@H]1Cc2c(ccc3c2O[C@@H]2COc4cc(OC)c(OC)cc4[C@@H]2C3=O)O1 | > 100 | 0.145 | 18.3 | > 88.4 | 8.12 |  | 7.87 | 24.7 | > 73 | 3.05 | 45.3 | 48 | > 89.7 |  |  |  |  |  |  | 
O=C1c2ccsc2C(=O)c2sc(CO)cc21 | 0.326 |  | 0.115 | 2.39 | 5.33 | 0.352 | 0.304 | < 0.0154 |  | 2.74 | 0.978 | 1.21 | 0.113 | < 0.0177 |  |  |  |  |  | 
CC(=O)O[C@H]1C(=O)[C@@]2(C)C(C(OC(=O)c3ccccc3)[C@]3(O)CC(OC(=O)C(O)C(NC(=O)c4ccc(C(F)(F)F)cc4)c4ccccc4)C(C)=C1C3(C)C)[C@]1(OC(C)=O)CO[C@@H]1C[C@@H]2O (some centres undefined) | 28.9 | 0.122 | 0.53 |  | 0.387 | 0.174 |  | 0.485 | 0.271 | 0.194 | 10.1 | 13.7 | 31 |  |  |  |  |  |  | 
C1=Cc2cc3c(c4nccc(c24)N1)OCO3 |  |  |  | 34 | 28.6 |  |  | 54.5 |  | > 100 |  | 26 |  | 24.2 |  |  |  |  |  | 
CCOC(=O)c1cn2c(n1)sc1cc(Cl)ccc12 |  |  |  | > 100 | > 100 |  |  | > 100 |  | 64.5 |  | 99.1 |  | 12.6 |  |  |  |  |  | 
COc1cc2oc(-c3ccc(O)cc3)c(OC)c(=O)c2c(O)c1OC |  |  |  | > 100 | 72.8 |  |  | > 100 |  | > 100 |  | > 100 |  | > 100 | 97 | 18.8 | 47.2 | 28.4 | 25.5 | > 100
CC(=O)Oc1ccc2cc(-c3ccccc3OC(C)=O)c(=O)oc2c1 |  |  |  | > 100 | > 100 |  |  | > 100 |  | > 100 |  | > 100 |  | > 100 |  |  |  |  |  | 
Cn1c(O)c(C(=O)NC2CCCCC2)c(=O)n(C)c1=S | 24 |  |  |  |  | 23.4 | 16 | 21.4 |  | 26.6 |  |  | 9.63 |  |  |  |  |  |  | 
CCCCCCCCCCCC(=O)OCC(C[As](=O)(O)O)OC(=O)CCCCCCCCCCC (centres undefined) | 31.3 | 3.13 | 10.1 | 21 | 14 | 20 | 5.21 | 4.48 | 15.8 | 22.8 | 7.69 | 6.49 | 14.1 | 13 |  |  |  |  |  | 
